# Tests used:
# [1] = tested on: human genital skin 5αR; assay: 5α-reductase activity: reduction of testosterone to DHT in human foreskin tissue enzyme mixture, HPLC; type: biochemical; details: for Activity (% of control) / DHT/testosterone (final): initial testosterone 0.34 mM; for DHT/testosterone (final): control 0.1562
# Method: 5α-reductase activity of soluble enzyme was measured by the reduction of testosterone at 37° C. during 40 min in a 3-ml enzyme mixture of human foreskin tissue or Bos taurus (Bovine) prostatic tissues, containing NADPH, with and without the test compound in parallel with analytical Ventranal standards for Testosterone and DHT. Tissue preparation and enzyme incubations were performed in accordance with Moore et al. (see below) with modifications. All steps were carried out at 4° C. Prostate or foreskin tissue was dissected and homogenized in ice-cold homogenization phosphate buffer at pH 8.0. The homogenate was centrifuged and the resulting cell free supernatant was stored in aliquots at −80° C. Inhibition of the steroid 5α-reductase was measured by incubating the enzyme and testosterone in the presence of a plant extract or a natural compound. […] The ratio of the peak areas gave quantitative measure of the inhibition [Neeman I. et al.: Urol.
# The activity of 5α-reductase (EC: 1.3.99.5) was checked in human foreskin tissue and in bovine prostatic tissues. Pure compound and plant extracts were tested for their 5α-reductase inhibition activity, in various experiments.
# [2] = tested on: mice; details: orally, mice (female); cited from earlier work
# [3] = tested on: mucous membranes of rabbits' eyes; details: concentrations of 0.2%; cited from earlier work
# [4] = tested on: skin; details: in vivo; cited from earlier work
# [5] = tested on: Salmonella typhimurium TA 1534, TA 1537, TA 1950, TA 98, TA 100; details: with or without metabolic activation; cited from earlier work
# [6] = tested on: mice CBAB1/6; details: cited from earlier work
# [7] = tested on: Tetrahymena pyriformis; details: over seven generations; cited from earlier work
# [8] = cited from earlier work
# [9] = tested on: fish; details: in vivo; cited from earlier work
# [10] = tested on: rats; details: cited from earlier work
SMILES,human skin reductase activity inhibited ([1]; as in Table 1 (10^−7M)),Activity (% of control) ([1]; inhibitor 10^−7M),DHT/testosterone (final) ([1]; inhibitor 10^−7M),LD50 [2],irritation of mucous membranes of eyes [3],skin irritation [4],Ames test for mutagenic activity [5],spontaneous mutations in micronuclear or chromosome abberation tests [6],genetic safety / mutagenic activity [7],"toxicity and cumulative effect ([8]; acute, subacute, and chronic experiments)",adaptogenic effect (increasing adaptive ability of the population) ([8]; prolonged experiments),toxicity ([8]; prolonged experiments),fish toxicity [9],stimulative and toxico-protective properties in fish [9],"LD50 ([10]; orally and dermally, rats (male/female))","Dermal toxicity ([10]; rat, in vivo)",Activity (% of control) ([1]; inhibitor 10^−6M),DHT/testosterone (final) ([1]; inhibitor 10^−6M)
CC(C)[C@@H](C)[C@@H](O)[C@H](O)[C@@H](C)[C@H]1CC[C@H]2[C@@H]3COC(=O)[C@H]4C[C@H](O)[C@H](O)C[C@]4(C)[C@H]3CC[C@]12C [Epibrassinolide-24],74%,25.9 % of control,0.0404,more than 1000 mg/kg,did not irritate,did not irritate the skin,negative,neither epibrassinolide-24 nor the liquid formulation caused spontaneous mutations,absence of mutagenic activity,low toxicity and very little cumulative effect,pronounced adaptogenic effect,no toxicity,no negative effects,pronounced stimulative and toxico-protective properties,more than 2000 mg/kg,more than 2000 mg/kg,–,–
"CC(C)(C)NC(=O)[C@H]1CC[C@H]2[C@@H]3CC[C@H]4NC(=O)C=C[C@]4(C)[C@H]3CC[C@]12C [Finasteride, reference compound]",–,–,–,–,–,–,–,–,–,–,–,–,–,–,–,–,32.7 % of control,0.0607
